The source of these data is patent US7166705B2 (Schering Corporation, priority 1999, dated 2007).

Assay [1] addresses T1, SP9144 (Homo sapiens, UniProt Q9H3N8).
T1 construct: expressed in transfected cells; host or cells: HEK-293-EBNA / HEK-293 cells, transient transfection with pCR3.1-SP9144
The experiment in a line: FLIPR intracellular Ca2+ assay, HEK-293-EBNA cells transfected with pCR3.1-SP9144. Conditions: for rank order of potency for activation of SP9144: transfected HEK-293-EBNA cells; for activation of SP9144 (change in intracellular Ca++, Fluo3 fluorescence): HEK-293-EBNA cells transfected with pCR3.1-SP9144, drugs 1×10^−4 M to 1×10^−9 M. It counts as cell-based. The procedure: (§1) 24 hours after transfection, cells were harvested and plated at 25,000 cells/well in clear bottom, black walled 96 well plates precoated with poly-D-lysine (Beckton-Dickenson) and cultured overnight in DMEM/10% FBS. For the assay, growth media was removed and replaced with 50 μl/well dye loading medium containing DMEM, 10% FBS, 20 mM HEPES pH 7.4, 2.5 mM probenecid (Sigma), […] Fluo3-AM (Sigma) (dissolved in 10% pluronic acid in DMSO). After 1 hr. at 37° C., the cell plates were washed 4 times with 250 μl Hanks Balanced Salt Solution (HBSS) lacking phenol red and containing 20 mM HEPES, 2.5 mM probenecid, and 0.1% BSA (wash buffer). A final volume of 100 μl/well of wash buffer was added to the plates, and the plates were placed into a Fluorescent Imaging Plate Reader (FLIPR, Molecular Devices) equilibrated to 37° C. […] Fluorescence was monitored once per second for 1 minute, and every 6 seconds for 2 minutes thereafter. After a 10 sec baseline measurement was established, drugs at 3× final concentration (1×10^−4 M to 1×10^−9 M) were added in a volume of 50 μl while the fluorescence continued to be monitored. Values extracted for data analysis represented the maximal fluorescence value minus the minimal fluorescence value detected following the drug addition. Drug stock solutions were initially dissolved in water (or DMSO) and diluted to 3× final concentration using wash buffer.

Assay [2] addresses T1, SP9144. The experiment in a line: [3H]histamine binding assay (saturation and competition), membranes of HEK-293 cells transfected with SP9144. The following applies: for rank order of potency for blocking [3H]-histamine binding: competition with 18 nM [3H]histamine, 70 μg membrane protein; for block of [3H]-histamine binding: at concentrations of 10 μM. The procedure:
(§2) Membrane preparation: HEK-293 cells transfected with SP9144 as described above were harvested by incubating in 5 mM EDTA/phosphate-buffered saline followed by repeated pipetting. The cells were centrifuged 5 min at 1000×g. The EDTA/PBS was decanted and an equal volume of ice-cold 50 mM Tris-HCl, pH 7.5, was added and cells were broken up with a Polytron (PT10 tip, setting 5, 30 sec). Nuclei and unbroken cells were sedimented at 1000×g for 10 min and then the supernatant was centrifuged at 50,000×g for 10 min. The supernatant was decanted, the pellet was resuspended by Polytron, a sample was taken for protein assay (bicinchoninic acid, Pierce), and the tissue was again centrifuged at 50,000×g. Pellets were stored frozen at −20° C.
(§3) Samples were filtered on GF/B filters and washed thrice with 2 ml of cold Tris buffer. Filters were dried in a microwave oven, impregnated with Meltilex wax scintillant, and counted at 45% efficiency. […] Curves were fit to the data with Prism (GraphPad Software) nonlinear least-squares curve-fitting program and Ki values were derived from IC50 values according to Cheng and Prusoff (Cheng, Y. C., and Prusoff, W. H. (1973) Relationship between the inhibition constant (Ki) and the concentration of inhibitor which causes 50 per cent inhibition (IC50) of an enzymatic reaction. Biochem. Pharmacol. 22, 3099–3108).

The test system of assay [3] is mock transfected cells. The method, then:
as §1

Assay [4] deals with untransfected HEK-293 cells. The experiment in a line: [3H]histamine binding to membranes from untransfected HEK-293 cells. The procedure: as §2, §3

T1 sequence (Q9H3N8 whole entry): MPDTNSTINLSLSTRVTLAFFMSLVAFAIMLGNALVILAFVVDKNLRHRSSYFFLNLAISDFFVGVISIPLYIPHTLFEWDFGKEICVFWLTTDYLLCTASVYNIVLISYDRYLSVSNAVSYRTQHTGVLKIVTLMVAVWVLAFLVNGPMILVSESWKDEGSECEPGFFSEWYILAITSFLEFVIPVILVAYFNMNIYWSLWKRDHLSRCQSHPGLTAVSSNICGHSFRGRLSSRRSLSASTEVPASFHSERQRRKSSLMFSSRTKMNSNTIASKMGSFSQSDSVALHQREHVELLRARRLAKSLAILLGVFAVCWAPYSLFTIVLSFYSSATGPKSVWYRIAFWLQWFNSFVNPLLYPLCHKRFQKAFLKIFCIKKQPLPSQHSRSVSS

Consider `NCCc1c[nH]cn1` [histamine], for which, in assay [1] (FLIPR Ca++ assay), the “rank order of potency for activation of SP9144” value (from here on “rank order … of SP9144”) was “Histamine>Nα-methylhistamine>(R) α-methylhistamine>>(S)α-methylhistamine (inactive)”. Moreover, the “activation of SP9144 (change in intracellular Ca++, Fluo3 fluorescence)” value in assay [1] is “specifically activated”. Moreover, the “rank order of potency for blocking [3H]-histamine binding” value (from here on “rank order of potency for blocking”) in assay [2] is “imetit>clobenpropit>histamine>impromidine>Na-methylhistamine>burimamide>(R)-a-methylhistamine>thioperimide>>(S)-a-methylhistamine”. Also, in assay [3], the “activation by histamine in mock transfected cells” value is given as “not observed”.
On to `NCCc1ccc(O)c(O)c1` [dopamine], for which, in assay [1], the “activation of SP9144 (change in intracellular Ca++, Fluo3 fluorescence)” value is “not by other biogenic amines”.
With `NCCc1c[nH]c2ccc(O)cc12` [serotonin], the “activation of SP9144 (change in intracellular Ca++, Fluo3 fluorescence)” value in assay [1] was “not by other biogenic amines”.
For the compound `N=C(N)SCCc1cnc[nH]1` [imetit], the “rank order … of SP9144” value in assay [1] (FLIPR Ca++ assay) was “clobenpropit>imetit>impromidine>buramimide”. Also, the “activation of SP9144 (change in intracellular Ca++, Fluo3 fluorescence)” value in assay [1] was “able to activate SP9144, albeit with reduced efficacy”. In addition, the “rank order of potency for blocking” value in assay [2] is listed as “imetit>clobenpropit>histamine>impromidine>Na-methylhistamine>burimamide>(R)-a-methylhistamine>thioperimide>>(S)-a-methylhistamine”.
`Cc1nc[nH]c1CSCCN=C(N)NCCCc1cnc[nH]1` [impromidine]: the “rank order … of SP9144” value in assay [1] (FLIPR Ca++ assay) is listed as “clobenpropit>imetit>impromidine>buramimide”. Further, the “activation of SP9144 (change in intracellular Ca++, Fluo3 fluorescence)” value in assay [1] is “able to activate SP9144, albeit with reduced efficacy”. Moreover, in assay [2], the “rank order of potency for blocking” value is on record as “imetit>clobenpropit>histamine>impromidine>Na-methylhistamine>burimamide>(R)-a-methylhistamine>thioperimide>>(S)-a-methylhistamine”.
For the compound `CNC(=S)NCCCCc1cnc[nH]1` [buramimide], the “rank order … of SP9144” value in assay [1] (FLIPR Ca++ assay) is “clobenpropit>imetit>impromidine>buramimide”. The “activation of SP9144 (change in intracellular Ca++, Fluo3 fluorescence)” value in assay [1] is listed as “able to activate SP9144, albeit with reduced efficacy”. The “rank order of potency for blocking” value in assay [2] is on record as “imetit>clobenpropit>histamine>impromidine>Na-methylhistamine>burimamide>(R)-a-methylhistamine>thioperimide>>(S)-a-methylhistamine”.
`CN/C(=N/CCSCc1nc[nH]c1C)NC#N` [cimetidine]: in assay [1], the “activation of SP9144 (change in intracellular Ca++, Fluo3 fluorescence)” value is “completely inactive”. In addition, the “block of [3H]-histamine binding” value in assay [2] is given as “not able to block”.
For the compound `C[C@H](N)Cc1c[nH]cn1` [(S)α-methylhistamine], the “rank order … of SP9144” value in assay [1] (FLIPR Ca++ assay) is “Histamine>Nα-methylhistamine>(R) α-methylhistamine>>(S)α-methylhistamine (inactive)”. Also, in assay [1], the “activation of SP9144 (change in intracellular Ca++, Fluo3 fluorescence)” value was “inactive”. For the same compound, the “rank order of potency for blocking” value in assay [2] is “imetit>clobenpropit>histamine>impromidine>Na-methylhistamine>burimamide>(R)-a-methylhistamine>thioperimide>>(S)-a-methylhistamine”.
`CN(C)CCC(c1ccc(Cl)cc1)c1ccccn1` (centres unmarked) [chlorphenirimine]: the “activation of SP9144 (change in intracellular Ca++, Fluo3 fluorescence)” value in assay [1] was “completely inactive”. Moreover, in assay [2], the “block of [3H]-histamine binding” value was “not able to block”.
Regarding `C[C@@H](N)Cc1c[nH]cn1` [(R) α-methylhistamine], the “rank order … of SP9144” value in assay [1] (FLIPR Ca++ assay) was “Histamine>Nα-methylhistamine>(R) α-methylhistamine>>(S)α-methylhistamine (inactive)”. Also, the “activation of SP9144 (change in intracellular Ca++, Fluo3 fluorescence)” value in assay [1] is listed as “able to activate SP9144”. In assay [2], the “rank order of potency for blocking” value is reported as “imetit>clobenpropit>histamine>impromidine>Na-methylhistamine>burimamide>(R)-a-methylhistamine>thioperimide>>(S)-a-methylhistamine”.
For `NCCc1c[nH]cn1` [[^3H]-Histamine], the “specific binding of [3H]-histamine to membranes” value in assay [4] is “not to membranes from untransfected HEK-293 cells”; in assay [2] (membranes from HEK-293 cells transfected with SP9144 DNA) it was “bound specifically”.
For `NC[C@H](O)c1ccc(O)c(O)c1` [nor-epinephrine], the “activation of SP9144 (change in intracellular Ca++, Fluo3 fluorescence)” value in assay [1] is given as “not by other biogenic amines”.
`NC(=NCc1ccc(Cl)cc1)SCCCc1cnc[nH]1` [clobenpropit]: in assay [1] (FLIPR Ca++ assay), the “rank order … of SP9144” value was “clobenpropit>imetit>impromidine>buramimide”. Also, the “activation of SP9144 (change in intracellular Ca++, Fluo3 fluorescence)” value in assay [1] is on record as “able to activate SP9144, albeit with reduced efficacy”. Moreover, the “rank order of potency for blocking” value in assay [2] was “imetit>clobenpropit>histamine>impromidine>Na-methylhistamine>burimamide>(R)-a-methylhistamine>thioperimide>>(S)-a-methylhistamine”.
As to `CNCCc1c[nH]cn1` [Nα-methylhistamine], in assay [1] (FLIPR Ca++ assay), the “rank order … of SP9144” value was “Histamine>Nα-methylhistamine>(R) α-methylhistamine>>(S)α-methylhistamine (inactive)”. For the same compound, the “activation of SP9144 (change in intracellular Ca++, Fluo3 fluorescence)” value in assay [1] is on record as “able to activate SP9144”. Further, the “rank order of potency for blocking” value in assay [2] is “imetit>clobenpropit>histamine>impromidine>Na-methylhistamine>burimamide>(R)-a-methylhistamine>thioperimide>>(S)-a-methylhistamine”.
As for `CNC[C@H](O)c1ccc(O)c(O)c1` [epinephrine], the “activation of SP9144 (change in intracellular Ca++, Fluo3 fluorescence)” value in assay [1] was “not by other biogenic amines”.
As to `S=C(NC1CCCCC1)N1CCC(c2cnc[nH]2)CC1` [thioperimide], the “block of the activation of SP9144 by (R)α-methylhistamine” value in assay [1] (FLIPR Ca++ assay, antagonist mode) is recorded as “could be blocked in a dose dependent manner”. Moreover, the “activation of SP9144 (change in intracellular Ca++, Fluo3 fluorescence)” value in assay [1] was “no activation of SP9144”. Further, in assay [2], the “rank order of potency for blocking” value is given as “imetit>clobenpropit>histamine>impromidine>Na-methylhistamine>burimamide>(R)-a-methylhistamine>thioperimide>>(S)-a-methylhistamine”.
